Test results published in patent US20090123397A1, “Microbiocidal compositions” (Thor Specialities (UK) Limited, priority 2005, published 2009).

Tests used:
Staphylococcus aureus [1] = test: MIC / growth test of MIT and CAG mixtures in Müller-Hinton broth; assay type: cell-based, Staphylococcus aureus ATCC 6538; set-up: key to growth of the micro-organism: growth of the micro-organism took place (symbol “+”); or not (symbol “−”); conditions: 72 h
Protocol: (§1) For this purpose, aqueous mixtures were produced with various concentrations of 2-methylisothiazolin-3-one (MIT) and caprylyl glycol (CAG) and the activity of these mixtures were tested on the micro-organisms listed in Table VI.
(§2) In addition to the active component(s) and water, the aqueous mixtures contained a nutrient medium, namely a Müller-Hinton broth (Manufacturer: Oxoid; product code CM405). The incubation time was 72 h at 25° C. (bacterial and yeast) or 7 days at 25° C. (mould). Each sample was incubated on an incubation shaker at 105 rpm.
(§3) The tables also show whether growth of the micro-organism took place (symbol “+”) or not (symbol “−”).
(§4) Tables I to V also show the minimum inhibition concentrations (MIC).
(§5) The synergy index is calculated according to the method of F. C. Kull et al., Applied Microbiology, Vol. 9 (1961), p. 538. Here the synergy index is calculated using the following formula:
(§6) Synergy index=Qa/QA+Qb/QB
(§7) When this formula is used on the biocide system tested here, the quantities in the formula have the following meaning: • Qa=MIC of MIT in the preservative mixture of MIT and CAG • QA=MIC of MIT as sole ingredient • Qb=MIC of CAG in the preservative mixture of MIT and CAG • QB=MIC of CAG as sole ingredient
(§8) When the synergy index has the value 1, this means that there is an addition of the activity of the two ingredients. When the synergy index has a value of less than 1, this means that a synergy of the two ingredients exists.

Aspergillus niger [2] = test: as above; assay type: cell-based, Aspergillus niger IMI 149007; set-up: key to growth of the micro-organism: growth of the micro-organism took place (symbol “+”); or not (symbol “−”); conditions: 5 days
Protocol: as §1
In addition to the active component(s) and water, the aqueous mixtures contained a nutrient medium, namely a Müller-Hinton broth (Manufacturer: Oxoid; product code CM405). […] (mould). Each sample was incubated on an incubation shaker at 105 rpm.
as §3, §4, §5, §6, §7, §8

Candida albicans [3] = test: as above; assay type: cell-based, Candida albicans NCPF 3179; set-up: key to growth of the micro-organism: growth of the micro-organism took place (symbol “+”); or not (symbol “−”); conditions: 72 h
Protocol: as §1, §2, §3, §4, §5, §6, §7, §8

Enterococcus faecalis = test: as above; assay type: cell-based, Enterococcus faecalis NCIMB 12756; set-up: key to growth of the micro-organism: growth of the micro-organism took place (symbol “+”); or not (symbol “−”); conditions: 72 h
Protocol: as §1, §2, §3, §4, §5, §6, §7, §8

Pseudomonas aeruginosa [4] = test: as above; assay type: cell-based, Pseudomonas aeruginosa ATCC 9027; set-up: key to growth of the micro-organism: growth of the micro-organism took place (symbol “+”); or not (symbol “−”); conditions: 72 h
Protocol: as §1, §2, §3, §4, §5, §6, §7, §8

Staphylococcus aureus [5] = test: Efficacy of C5 alkane diols vs. C8 alkane diols; assay type: cell-based; set-up: key: + = no growth inhibition; − = growth inhibition
Protocol: (§9) Tables VIIIA to VIIID—Efficacy of C5 alkane diols vs. C8 alkane diols. […] Tables VIIIA to VIIID above illustrate the results of tests of the efficacy of octane diol compared to pentane diol on various organisms. These tests were carried out in a similar manner to those described above. The percentages at the top line of each table indicate the amount of diol used by weight in the preservative mixture.

Pseudomonas aeruginosa [6] = test: Efficacy of C5 alkane diols vs. C8 alkane diols; assay type: cell-based; set-up: key: + = no growth inhibition; − = growth inhibition
Protocol: as §9

Aspergillus Niger [7] = test: Efficacy of C5 alkane diols vs. C8 alkane diols; assay type: cell-based; set-up: key: + = no growth inhibition; − = growth inhibition
Protocol: as §9

Candida albicans [8] = test: Efficacy of C5 alkane diols vs. C8 alkane diols; assay type: cell-based; set-up: key: + = no growth inhibition; − = growth inhibition
Protocol: as §9

Compound: CCCCCCC(O)CO (stereo not drawn) [CAG, caprylyl glycol]
- QB (CAG): MIC of CAG as sole ingredient (Staphylococcus aureus [1]): 1000 ppm
- growth of the micro-organism (Staphylococcus aureus [1]; MIT 0 ppm, CAG 500 ppm): +
- growth of the micro-organism (Staphylococcus aureus [1]; MIT 0 ppm, CAG 1000 ppm): −
- growth of the micro-organism (Staphylococcus aureus [1]; MIT 0 ppm, CAG 2000 ppm): −
- growth of the micro-organism (Staphylococcus aureus [1]; MIT 0 ppm, CAG 3000 ppm): −
- growth of the micro-organism (Staphylococcus aureus [1]; MIT 0 ppm, CAG 4000 ppm): −
- QB (CAG): MIC of CAG as sole ingredient (Aspergillus niger [2]): 2000 ppm
- growth of the micro-organism (Aspergillus niger [2]; MIT 0 ppm, CAG 500 ppm): +
- growth of the micro-organism (Aspergillus niger [2]; MIT 0 ppm, CAG 1000 ppm): +
- growth of the micro-organism (Aspergillus niger [2]; MIT 0 ppm, CAG 2000 ppm): −
- growth of the micro-organism (Aspergillus niger [2]; MIT 0 ppm, CAG 3000 ppm): −
- growth of the micro-organism (Aspergillus niger [2]; MIT 0 ppm, CAG 4000 ppm): −
- QB (CAG): MIC of CAG as sole ingredient (Candida albicans [3]): 3000 ppm
- growth of the micro-organism (Candida albicans [3]; MIT 0 ppm, CAG 500 ppm): +
- growth of the micro-organism (Candida albicans [3]; MIT 0 ppm, CAG 1000 ppm): +
- growth of the micro-organism (Candida albicans [3]; MIT 0 ppm, CAG 2000 ppm): +
- growth of the micro-organism (Candida albicans [3]; MIT 0 ppm, CAG 3000 ppm): −
- growth of the micro-organism (Candida albicans [3]; MIT 0 ppm, CAG 4000 ppm): −
- QB (CAG): MIC of CAG as sole ingredient (Enterococcus faecalis): 2000 ppm
- growth of the micro-organism (Enterococcus faecalis; MIT 0 ppm, CAG 500 ppm): +
- growth of the micro-organism (Enterococcus faecalis; MIT 0 ppm, CAG 1000 ppm): +
- growth of the micro-organism (Enterococcus faecalis; MIT 0 ppm, CAG 2000 ppm): −
- growth of the micro-organism (Enterococcus faecalis; MIT 0 ppm, CAG 3000 ppm): −
- growth of the micro-organism (Enterococcus faecalis; MIT 0 ppm, CAG 4000 ppm): −
- QB (CAG): MIC of CAG as sole ingredient (Pseudomonas aeruginosa [4]): 4000 ppm
- growth of the micro-organism (Pseudomonas aeruginosa [4]; MIT 0 ppm, CAG 500 ppm): +
- growth of the micro-organism (Pseudomonas aeruginosa [4]; MIT 0 ppm, CAG 1000 ppm): +
- growth of the micro-organism (Pseudomonas aeruginosa [4]; MIT 0 ppm, CAG 2000 ppm): +
- growth of the micro-organism (Pseudomonas aeruginosa [4]; MIT 0 ppm, CAG 3000 ppm): +
- growth of the micro-organism (Pseudomonas aeruginosa [4]; MIT 0 ppm, CAG 4000 ppm): −

Compound: CCCC(O)CO (stereo not drawn) [1,2 Pentane diol, reference compound]
- growth inhibition (Staphylococcus aureus [5]; diol 0.2% by weight): +
- growth inhibition (Staphylococcus aureus [5]; diol 0.4% by weight): +
- growth inhibition (Staphylococcus aureus [5]; diol 0.6% by weight): +
- growth inhibition (Staphylococcus aureus [5]; diol 0.8% by weight): +
- growth inhibition (Staphylococcus aureus [5]; diol 1.0% by weight): +
- growth inhibition (Pseudomonas aeruginosa [6]; diol 0.2% by weight): +
- growth inhibition (Pseudomonas aeruginosa [6]; diol 0.4% by weight): +
- growth inhibition (Pseudomonas aeruginosa [6]; diol 0.6% by weight): +
- growth inhibition (Pseudomonas aeruginosa [6]; diol 0.8% by weight): +
- growth inhibition (Pseudomonas aeruginosa [6]; diol 1.0% by weight): +
- growth inhibition (Aspergillus Niger [7]; diol 0.2% by weight): +
- growth inhibition (Aspergillus Niger [7]; diol 0.4% by weight): +
- growth inhibition (Aspergillus Niger [7]; diol 0.6% by weight): +
- growth inhibition (Aspergillus Niger [7]; diol 0.8% by weight): +
- growth inhibition (Aspergillus Niger [7]; diol 1.0% by weight): +
- growth inhibition (Candida albicans [8]; diol 0.2% by weight): +
- growth inhibition (Candida albicans [8]; diol 0.4% by weight): +
- growth inhibition (Candida albicans [8]; diol 0.6% by weight): +
- growth inhibition (Candida albicans [8]; diol 0.8% by weight): +
- growth inhibition (Candida albicans [8]; diol 1.0% by weight): +

Compound: Cn1sccc1=O [MIT, 2-methylisothiazolin-3-one]
- QA (MIT): MIC of MIT as sole ingredient (Staphylococcus aureus [1]): 25 ppm
- growth of the micro-organism (Staphylococcus aureus [1]; MIT 10 ppm, CAG 0 ppm): +
- growth of the micro-organism (Staphylococcus aureus [1]; MIT 25 ppm, CAG 0 ppm): −
- growth of the micro-organism (Staphylococcus aureus [1]; MIT 37.5 ppm, CAG 0 ppm): −
- growth of the micro-organism (Staphylococcus aureus [1]; MIT 50 ppm, CAG 0 ppm): −
- growth of the micro-organism (Staphylococcus aureus [1]; MIT 75 ppm, CAG 0 ppm): −
- QA (MIT): MIC of MIT as sole ingredient (Aspergillus niger [2]): 300 ppm
- growth of the micro-organism (Aspergillus niger [2]; MIT 10 ppm, CAG 0 ppm): +
- growth of the micro-organism (Aspergillus niger [2]; MIT 25 ppm, CAG 0 ppm): +
- growth of the micro-organism (Aspergillus niger [2]; MIT 37.5 ppm, CAG 0 ppm): +
- growth of the micro-organism (Aspergillus niger [2]; MIT 50 ppm, CAG 0 ppm): +
- growth of the micro-organism (Aspergillus niger [2]; MIT 75 ppm, CAG 0 ppm): +
- growth of the micro-organism (Aspergillus niger [2]; MIT 100 ppm, CAG 0 ppm): +
- growth of the micro-organism (Aspergillus niger [2]; MIT 200 ppm, CAG 0 ppm): +
- growth of the micro-organism (Aspergillus niger [2]; MIT 300 ppm, CAG 0 ppm): −
- QA (MIT): MIC of MIT as sole ingredient (Candida albicans [3]): 200 ppm
- growth of the micro-organism (Candida albicans [3]; MIT 10 ppm, CAG 0 ppm): +
- growth of the micro-organism (Candida albicans [3]; MIT 25 ppm, CAG 0 ppm): +
- growth of the micro-organism (Candida albicans [3]; MIT 37.5 ppm, CAG 0 ppm): +
- growth of the micro-organism (Candida albicans [3]; MIT 50 ppm, CAG 0 ppm): +
- growth of the micro-organism (Candida albicans [3]; MIT 75 ppm, CAG 0 ppm): +
- growth of the micro-organism (Candida albicans [3]; MIT 100 ppm, CAG 0 ppm): +
- growth of the micro-organism (Candida albicans [3]; MIT 200 ppm, CAG 0 ppm): −
- QA (MIT): MIC of MIT as sole ingredient (Enterococcus faecalis): 75 ppm
- growth of the micro-organism (Enterococcus faecalis; MIT 10 ppm, CAG 0 ppm): +
- growth of the micro-organism (Enterococcus faecalis; MIT 25 ppm, CAG 0 ppm): +
- growth of the micro-organism (Enterococcus faecalis; MIT 37.5 ppm, CAG 0 ppm): +
- growth of the micro-organism (Enterococcus faecalis; MIT 50 ppm, CAG 0 ppm): +
- growth of the micro-organism (Enterococcus faecalis; MIT 75 ppm, CAG 0 ppm): −
- QA (MIT): MIC of MIT as sole ingredient (Pseudomonas aeruginosa [4]): 25 ppm
- growth of the micro-organism (Pseudomonas aeruginosa [4]; MIT 10 ppm, CAG 0 ppm): +
- growth of the micro-organism (Pseudomonas aeruginosa [4]; MIT 25 ppm, CAG 0 ppm): −
- growth of the micro-organism (Pseudomonas aeruginosa [4]; MIT 37.5 ppm, CAG 0 ppm): −
- growth of the micro-organism (Pseudomonas aeruginosa [4]; MIT 50 ppm, CAG 0 ppm): −
- growth of the micro-organism (Pseudomonas aeruginosa [4]; MIT 75 ppm, CAG 0 ppm): −

Compound: CCCCCCC(O)CO (stereo not drawn) [1,2-Octane diol]
- growth inhibition (Staphylococcus aureus [5]; diol 0.2% by weight): −
- growth inhibition (Staphylococcus aureus [5]; diol 0.4% by weight): −
- growth inhibition (Staphylococcus aureus [5]; diol 0.6% by weight): −
- growth inhibition (Staphylococcus aureus [5]; diol 0.8% by weight): −
- growth inhibition (Staphylococcus aureus [5]; diol 1.0% by weight): −
- growth inhibition (Pseudomonas aeruginosa [6]; diol 0.2% by weight): +
- growth inhibition (Pseudomonas aeruginosa [6]; diol 0.4% by weight): −
- growth inhibition (Pseudomonas aeruginosa [6]; diol 0.6% by weight): −
- growth inhibition (Pseudomonas aeruginosa [6]; diol 0.8% by weight): −
- growth inhibition (Pseudomonas aeruginosa [6]; diol 1.0% by weight): −
- growth inhibition (Aspergillus Niger [7]; diol 0.2% by weight): −
- growth inhibition (Aspergillus Niger [7]; diol 0.4% by weight): −
- growth inhibition (Aspergillus Niger [7]; diol 0.6% by weight): −
- growth inhibition (Aspergillus Niger [7]; diol 0.8% by weight): −
- growth inhibition (Aspergillus Niger [7]; diol 1.0% by weight): −
- growth inhibition (Candida albicans [8]; diol 0.2% by weight): +
- growth inhibition (Candida albicans [8]; diol 0.4% by weight): −
- growth inhibition (Candida albicans [8]; diol 0.6% by weight): −
- growth inhibition (Candida albicans [8]; diol 0.8% by weight): −
- growth inhibition (Candida albicans [8]; diol 1.0% by weight): −
